These results are taken from patent publication US11730720B2, “ALK5 inhibitors” (THERAVANCE BIOPHARMA R&D IP, LLC, priority 2018, dated 2023).

The target of assay [1] is T1, recombinant human ALK5 (TGF-βR1) protein (Homo sapiens, UniProt P36897).
T1 construct: purchased Life Technologies PR9075A
T1 sequence (P36897 34-503): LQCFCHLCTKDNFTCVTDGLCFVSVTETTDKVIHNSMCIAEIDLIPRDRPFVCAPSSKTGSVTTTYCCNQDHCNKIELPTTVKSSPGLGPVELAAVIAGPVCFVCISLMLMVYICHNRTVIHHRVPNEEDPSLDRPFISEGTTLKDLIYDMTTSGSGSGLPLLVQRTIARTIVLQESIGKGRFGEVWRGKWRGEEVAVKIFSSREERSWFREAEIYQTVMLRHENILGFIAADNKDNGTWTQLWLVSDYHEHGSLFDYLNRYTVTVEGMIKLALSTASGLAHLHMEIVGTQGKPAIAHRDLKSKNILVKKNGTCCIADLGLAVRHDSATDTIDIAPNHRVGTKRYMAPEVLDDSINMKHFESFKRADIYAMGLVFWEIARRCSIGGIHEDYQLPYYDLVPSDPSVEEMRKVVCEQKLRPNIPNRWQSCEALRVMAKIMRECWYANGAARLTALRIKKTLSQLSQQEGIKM
Put plainly: Biochemical ALK5 (TGF-βR1) assay to measure pKi (LANCE Ultra ULight kinase assay). Conditions: apparent pKi, converted from pIC50 using the Cheng-Prusoff equation. In a few lines: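 TR-FRET kinase format: compound dose range 10 μM–25 pM equilibrated 60 min with human ALK5 and ULight-labelled topoisomerase 2α peptide in HEPES/MgCl2 buffer pH 7.5 with DTT. Reaction started with ATP (125 μM stock, 5× final), 60 min at 37° C, stopped with EDTA/Eu-anti-phospho antibody; pKi derived from pIC50 via Cheng-Prusoff.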

For assay [2], the system named is TGF-β-stimulated SMAD3 phosphorylation in BEAS-2B cells. The experiment in a line: Cellular ALK5 potency assay, inhibition of TGF-β stimulated pSMAD3 formation in BEAS-2B cells. Conditions: Homo sapiens, inhibition of TGF-β (10 ng/mL) stimulated pSMAD3 formation, 1 hour compound incubation, read-out: BEAS2B pIC50 (converted). Format: cell-based. The method in brief: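 Phospho-SMAD3 was quantified by AlphaLISA in lysates of human lung epithelial BEAS-2B cells. Compound was added 1 h (37 °C, HEPES/BSA-supplemented HBSS) before a 30 min challenge with 10 ng/mL TGF-β. Values are pIC50 relative to stimulated cells without compound.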

Turning to `CN(CC1CNC1)c1cnc2ccc(-c3nc[nH]c3-c3cc(Cl)c(F)cc3F)nc2c1` [Compound 7-6, N-(azetidin-3-ylmethyl)-6-[5-(5-chloro-2,4-difluoro-phenyl)-1H-imidazol-4-yl]-N-methyl-1,5-naphthyridin-3-amine], the Ki in assay [1] was 0.0398 to 0.316 nM. Besides, in assay [2], the IC50 is 25.1 to 158 nM.
For `N[C@@H]1CCCC[C@H]1n1cc(-c2cnc3ccc(-c4nc[nH]c4-c4cc(Cl)c(F)cc4F)cc3c2)cn1` [Compound 7-7, (1R,2R)-2-[4-[6-[5-(5-chloro-2,4-difluoro-phenyl)-1H-imidazol-4-yl]-3-quinolyl]pyrazol-1-yl]cyclohexanamine], in that order: 0.0398 to 0.316 nM and 25.1 to 158 nM.
Take `CC(C)N1CCN(CCNc2cnc3ccc(-c4c[nH]nc4-c4ccc(F)c(F)c4)nc3c2)CC1` [Compound 8-1, 6-(3-(3,4-difluorophenyl)-1H-pyrazol-4-yl)-N-(2-(4-isopropylpiperazin-1-yl)ethyl)-1,5-naphthyridin-3-amine]: in assay [1], the Ki is 3.98 to 31.6 nM. For the same compound, the IC50 in assay [2] is 25.1 to 158 nM.
For `CC1(C)CCCN1CCNc1cnc2ccc(-c3c[nH]nc3-c3ccc(F)c(F)c3)nc2c1` [Compound 8-2, 6-[3-(3,4-difluorophenyl)-1H-pyrazol-4-yl]-N-[2-(2,2-dimethylpyrrolidin-1-yl)ethyl]-1,5-naphthyridin-3-amine], in that order: 3.98 to 31.6 nM and 25.1 to 158 nM.
For `CN1CCN(C2CCN(c3cnc4ccc(-c5c[nH]nc5-c5ccc(F)c(F)c5)nc4c3)CC2)CC1` [Compound 8-3, 2-(3-(3,4-difluorophenyl)-1H-pyrazol-4-yl)-7-(4-(4-methylpiperazin-1-yl)piperidin-1-yl)-1,5-naphthyridine], in that order: 0.398 to 3.16 nM and 25.1 to 158 nM.
Turning to `Fc1ccc(-c2n[nH]cc2-c2ccc3ncc(N4CCNCC4)cc3n2)cc1F` [Compound 8-4, 2-[3-(3,4-difluorophenyl)-1H-pyrazol-4-yl]-7-piperazin-1-yl-1,5-naphthyridine], in assay [1], the Ki was 3.98 to 31.6 nM. Moreover, in assay [2], the IC50 was 25.1 to 158 nM.
As to `CNC1CCN(c2cnc3ccc(-c4c[nH]nc4-c4ccc(F)c(F)c4)nc3c2)CC1` [Compound 8-6, 1-[6-[3-(3,4-difluorophenyl)-1H-pyrazol-4-yl]-1,5-naphthyridin-3-yl]-N-methyl-piperidin-4-amine], the Ki in assay [1] was 0.398 to 3.16 nM. The IC50 in assay [2] was 25.1 to 158 nM.
On the same counts, the results for `CN(C)C1CCN(c2cnc3ccc(-c4c[nH]nc4-c4ccc(F)c(F)c4)nc3c2)CC1` [Compound 8-7, 1-[6-[3-(3,4-difluorophenyl)-1H-pyrazol-4-yl]-1,5-naphthyridin-3-yl]-N,N-dimethyl-piperidin-4-amine] are 0.398 to 3.16 nM and 25.1 to 158 nM.
On the same counts, the results for `OCCN1CCN(c2cnc3ccc(-c4c[nH]nc4-c4ccc(F)c(F)c4)nc3c2)CC1` [Compound 8-8, 2-[4-[6-[3-(3,4-difluorophenyl)-1H-pyrazol-4-yl]-1,5-naphthyridin-3-yl]piperazin-1-yl]ethanol] are 3.98 to 31.6 nM and 25.1 to 158 nM.
Consider `NC1CCN(c2cnc3ccc(-c4c[nH]nc4-c4ccc(F)c(F)c4)nc3c2)C1` (stereo not drawn) [Compound 8-9, 1-[6-[3-(3,4-difluorophenyl)-1H-pyrazol-4-yl]-1,5-naphthyridin-3-yl]pyrrolidin-3-amine], for which the Ki in assay [1] was 0.398 to 3.16 nM. Also, the IC50 in assay [2] is 25.1 to 158 nM.
On the same counts, the results for `CC(C)N1CCN(c2cnc3ccc(-c4c[nH]nc4-c4ccc(F)c(F)c4)nc3c2)CC1` [Compound 8-10, 2-[3-(3,4-difluorophenyl)-1H-pyrazol-4-yl]-7-(4-isopropylpiperazin-1-yl)-1,5-naphthyridine] are 0.398 to 3.16 nM and 25.1 to 158 nM.
Consider `Fc1ccc(-c2n[nH]cc2-c2ccc3ncc(N4CCC(N5CCCC5)CC4)cc3n2)cc1F` [Compound 8-11, 2-[3-(3,4-difluorophenyl)-1H-pyrazol-4-yl]-7-(4-pyrrolidin-1-yl-1-piperidyl)-1,5-naphthyridine], for which the Ki in assay [1] was 0.398 to 3.16 nM. The IC50 in assay [2] is 25.1 to 158 nM.
